Results reported in PubChem BioAssay AID1996.
≈ marks a conversion by molar mass, not a printed value.

Conditions: buffer; pH 7.4; 200.0 µM

SMILES	solubility kinetic
CCOC(=O)C1=C(CBr)NC(=O)NC1C (stereo not given)	> 0.0416 mg/mL
CCN(CC(=O)N1CCCC1)S(=O)(=O)c1cc(C)ccc1OC	0.0495 mg/mL (≈ 145 µM)
Cc1ccc(C(=O)NCc2cccnc2)o1	> 0.0324 mg/mL
O=S(=O)(Nc1cccc(S(=O)(=O)N2CCCC2)c1)c1ccccc1F	> 0.0577 mg/mL
COC(=O)c1ccc(CNC(=O)COC(=O)/C=C/c2ccc(OC)c(OC)c2)cc1	0.0066 mg/mL (≈ 16 µM)
COc1cc2c(cc1OC)CN(Cc1ccccc1)CC2	0.0356 mg/mL (≈ 126 µM)
Cc1sc2ncnc(Nc3ccc(O)cc3)c2c1C	0.0017 mg/mL (≈ 6.27 µM)
CC1=NCCN1CCNC(=O)Nc1ccc(F)cc1	> 0.0396 mg/mL
Nc1c(C(=O)OCC(=O)NCc2ccccc2)[nH]c(=O)[nH]c1=O	0.0289 mg/mL (≈ 90.8 µM)
Cc1cc(C)cc(OC(C)C(=O)Nc2ccc3c(c2)n(C)c(=O)n3C)c1 (stereo not given)	0.0379 mg/mL (≈ 107 µM)
COc1ccc(S(=O)(=O)NCCc2ccco2)cc1OC	> 0.0467 mg/mL
COc1cccc(NC(=O)COC(=O)C2CCCCC2)c1	> 0.0437 mg/mL
Cn1c(-c2ccccc2[N+](=O)[O-])[n+](C)c2ccccc21.[Cl-]	0.0429 mg/mL
O=C(CCc1nc(-c2ccccc2Cl)no1)NCc1ccco1	> 0.0498 mg/mL
Cc1ccccc1C(=O)/C=C1/SCC(=O)N1C	> 0.0371 mg/mL
CC1CC(=O)Nc2ccccc2N1S(=O)(=O)c1ccc(F)cc1F (stereo not given)	0.0156 mg/mL (≈ 44.3 µM)
CC(C(=O)N1CCCC1)N1CCN(S(=O)(=O)c2ccccc2)CC1 (stereo not given)	0.0471 mg/mL (≈ 134 µM)
CC(=O)N[C@@H](Cc1c[nH]c2ccccc12)C(=O)OCc1cc(C(F)(F)F)cc(C(F)(F)F)c1	0.0034 mg/mL (≈ 7.2 µM)
O=Cc1ccc2c(c1)CCN2Cc1ccccc1	0.0152 mg/mL (≈ 64.1 µM)

SMILES	solubility kinetic
CC(=O)c1cccc(NC(=O)c2cc(=O)[nH]c3ccccc23)c1	0.0125 mg/mL (≈ 40.8 µM)
CS(=O)(=O)N1CCC(C(=O)N2CCN(c3ccccc3F)CC2)CC1	0.0531 mg/mL (≈ 144 µM)
CC(=O)c1ccc(NC(=O)C2CCCO2)cc1 (stereo not given)	> 0.035 mg/mL
S=C(Nc1cccnc1)N1CCc2ccccc21	> 0.0383 mg/mL
C=CCn1c(SCc2ccc(C(=O)O)cc2)nc2sc(C)c(C)c2c1=O	> 0.058 mg/mL
O=C(NCCCCc1ccccc1)c1ccccc1F	> 0.0407 mg/mL
N/C(=N\OC(=O)c1ccc(Cl)cc1[N+](=O)[O-])c1ccccn1	0.003 mg/mL (≈ 9.35 µM)
CCOc1ccc2nc(Cl)sc2c1	< 0.0005 mg/mL
CSc1nc(N2CCOCC2)c2c(c1C#N)CC(C(C)C)OC2 (stereo not given)	< 0.0002 mg/mL
Cc1ccc(CCN2CC(C(=O)NCCC(C)C)CC2=O)cc1 (stereo not given)	0.0457 mg/mL (≈ 144 µM)
COc1cccc(Nc2nc(N)c([N+](=O)[O-])c(NCc3ccco3)n2)c1	0.0012 mg/mL (≈ 3.37 µM)
CCCOc1ccc(C(=O)NCC2OCCc3ccccc32)cc1OC (stereo not given)	0.0047 mg/mL (≈ 13.2 µM)
OCCC1CN(CC2CC2)CCN1Cc1ccc(F)c(F)c1 (stereo not given)	> 0.0466 mg/mL
COc1ccc(C2CN(C)CC2C(=O)c2ccc(C)cc2)cc1Cl (stereo not given)	0.0401 mg/mL (≈ 117 µM)
CC(NC(=O)Cn1cc(C(F)(F)F)ccc1=O)c1ccc(F)cc1 (stereo not given)	0.0235 mg/mL (≈ 68.7 µM)
COc1ccc(OCc2cc(=O)[nH]c3ccccc23)cc1	0.0029 mg/mL (≈ 10.3 µM)
CN1C(=O)C(CCC(N)=O)NC1=S (stereo not given)	0.0291 mg/mL (≈ 145 µM)
Cc1ccc(C)c(NC(=O)CN(C)C(=O)CC2OC(=O)c3ccccc32)c1 (stereo not given)	> 0.055 mg/mL
COc1ccc(NC(=O)c2cc(F)cc(F)c2)cc1S(=O)(=O)N1CCCCC1	0.0051 mg/mL (≈ 12.4 µM)

SMILES	solubility kinetic
O=C(CN1C(=O)c2ccc([N+](=O)[O-])cc2C1=O)NCc1ccc(C(=O)O)cc1	> 0.0575 mg/mL
Cn1cc(S(=O)(=O)NCCc2ccccc2)c(=O)n(C)c1=O	> 0.0485 mg/mL
CCn1cc(CCC(=O)NCc2ccccc2OC)c2ccccc21	0.0305 mg/mL (≈ 90.7 µM)
COc1ccc2[nH]c(C(=O)NCc3ccccc3)cc2c1	0.0013 mg/mL (≈ 4.64 µM)
COC(OC)C(C)NC(=O)NC(=O)c1ccccc1Cl (stereo not given)	0.0392 mg/mL (≈ 130 µM)
CC(=O)c1cccc(NC(=S)NCCc2ccc(F)cc2)c1	> 0.0475 mg/mL
CC#CC[N+](C)(C)CCCCCC.[Cl-]	0.0278 mg/mL
CC1CCCCN1C(=O)Cn1cnc2cc([N+](=O)[O-])ccc2c1=O (stereo not given)	> 0.0496 mg/mL
Cc1ccc(C)c(C(=O)N2CCN(c3ncccn3)CC2)c1	> 0.0445 mg/mL
Cl.O=C(c1cc(-c2cccc3ccccc23)nc2ccccc12)N1CCN(CCO)CC1	> 0.0672 mg/mL
CCN(CC)c1ccc(C(=O)OCC(=O)Nc2ncccn2)cc1	0.0024 mg/mL (≈ 7.31 µM)
CC(=O)NCCc1c[nH]c2ccc(O)cc12	> 0.0327 mg/mL
Cc1cc(C)nc(SCC(=O)c2ccc(Cl)cc2)n1	0.0335 mg/mL (≈ 114 µM)
COc1ccc(C2NC(=O)CCC2[N+](=O)[O-])c(OC)c1OC (stereo not given)	> 0.0465 mg/mL
CCOC(=O)C1CCN(C(=O)COC(=O)c2ccccc2OCC)CC1	> 0.0545 mg/mL
COc1ccc(N(CC(=O)N2CCCC2)S(C)(=O)=O)cc1	0.0345 mg/mL (≈ 110 µM)
COc1ccc(/C=C/C(=O)N2CCCC2)cc1OC	> 0.0392 mg/mL
CN(C)c1nc(N)c([N+](=O)[O-])c(N2CCCCCC2)n1	0.0397 mg/mL (≈ 142 µM)

Continued, values first:

solubility kinetic	SMILES
> 0.0439 mg/mL	C=CCN(CC=C)C(=S)Nc1ccc(OC)c(OC)c1
0.0179 mg/mL (≈ 54.8 µM)	CCCCN1C(=O)c2ccc(C(=O)NCc3ccco3)cc2C1=O
> 0.035 mg/mL	Cc1csc2c(N3CCCCC3)ncnc12
0.0362 mg/mL (≈ 148 µM)	O=C(Nc1nccs1)c1cn2ccccc2n1
0.0067 mg/mL (≈ 18.7 µM)	CC1CCCC(C)N1C(=O)CN1c2cccc3cccc(c23)S1(=O)=O (stereo not given)
0.0305 mg/mL (≈ 123 µM)	CC(=O)Cc1nsc(Nc2cccc(C)c2)n1
0.0383 mg/mL (≈ 130 µM)	Cc1cc(N)nc(SCC(=O)N2C(C)CCCC2C)n1 (stereo not given)
> 0.0457 mg/mL	CCOc1ccc(C(=O)NC(C(=O)N2CCC2)C(C)C)cc1 (stereo not given)
> 0.0329 mg/mL	Cc1ccc2c(c1)C1(OCCCO1)C(=O)N2
> 0.0484 mg/mL	CN1C(=O)Cc2cc(S(=O)(=O)NCc3cccs3)ccc21
0.0087 mg/mL (≈ 22.5 µM)	COc1ccc(C(=O)Nc2cccc(S(=O)(=O)NCc3ccco3)c2)cc1
0.0398 mg/mL (≈ 115 µM)	CCCc1nc2oc3ccccc3c(=O)c2c(=O)n1-c1ccc(C)cc1
0.0338 mg/mL (≈ 116 µM)	O=c1c2ccccc2ncn1-c1ccc(Cl)cc1Cl
0.0493 mg/mL (≈ 148 µM)	Cc1cc(C)cc(C(=O)NCC(=O)OCC(=O)N2CCCCC2)c1
> 0.0441 mg/mL	CC(C)n1cc(NC(=O)COc2ccccc2Cl)cn1
< 0.0004 mg/mL	O=C(Nc1cccc2cccnc12)c1ccc(Br)cc1Br
0.0454 mg/mL (≈ 145 µM)	COC(=O)[C@H](Cc1ccccc1)NC(=O)NCc1ccccc1
> 0.0427 mg/mL	CC1CCCCC1NC(=O)c1ccc(-n2cncn2)cc1 (stereo not given)
0.0292 mg/mL (≈ 116 µM)	Cn1c(=O)n(CCc2ccccc2)c2ccccc21
0.0116 mg/mL (≈ 39.5 µM)	Cc1cc(C(=O)OCC(=O)NC2CCC(C)CC2)c(C)o1 (stereo not given)
> 0.0542 mg/mL	CC(=O)Oc1ccc(C(c2ccc(OC(C)=O)cc2)c2ccccn2)cc1
< 0.0007 mg/mL	CC(C)(C)c1ccc(O)c(N=Cc2c(O)ccc3ccccc23)c1

solubility kinetic	SMILES
0.0286 mg/mL (≈ 96.2 µM)	O=C(Nc1cccc([N+](=O)[O-])c1)N1CCc2ccccc2C1
0.0034 mg/mL (≈ 11.2 µM)	CC(NC(=O)Nc1ccc(F)cc1)c1ccc2c(c1)OCO2 (stereo not given)
> 0.0356 mg/mL	Cc1ccc(C(=O)N2CCCCC2C(=O)O)o1 (stereo not given)
> 0.0525 mg/mL	C=CCN1C2CCCC1CC(NC(=S)Nc1ccc(Cl)cc1)C2 (stereo not given)
> 0.0566 mg/mL	Cc1nc2ccccn2c1C(=O)NNC(=O)Nc1cccc(C(F)(F)F)c1
0.0514 mg/mL (≈ 141 µM)	CCOC(=O)CCCNC(=O)CSc1nc2ccc(OCC)cc2[nH]1
> 0.0423 mg/mL	O=C(O)Cn1c(=O)n(Cc2ccccc2)c2ccccc21
0.0432 mg/mL (≈ 139 µM)	Cc1ccc(OC(=O)CCC(=O)Nc2ccc(C)c(C)c2)cc1
> 0.0318 mg/mL	Cc1cccc(N)c1-c1c(C)cccc1N
> 0.0401 mg/mL	NS(=O)(=O)c1cccc(NC(=O)c2ccno2)c1
0.0022 mg/mL (≈ 7 µM)	Cc1cc(C(=O)COc2ccc([N+](=O)[O-])cc2)c(C)n1C1CC1
> 0.0433 mg/mL	CC1COc2ccccc2N1C(=O)c1cccnc1Cl (stereo not given)
> 0.0375 mg/mL	Cc1cc(C(=O)N2CCC(C(N)=O)CC2)c(C)o1
> 0.0561 mg/mL	COc1ccc(S(=O)(=O)Nc2c(C)nn(C)c2C)cc1Br
0.0402 mg/mL (≈ 147 µM)	COC(=O)c1ccc(S(=O)(=O)NC(C)(C)C)n1C
> 0.0473 mg/mL	Cc1csc(=Nc2ccccc2)n1CCCN1CCCC1=O
> 0.0509 mg/mL	O=C(Cn1c(CO)nc2ccccc21)NCc1ccc2c(c1)OCO2
0.0181 mg/mL (≈ 83.3 µM)	COC(=O)c1c(-c2ccccc2)noc1C
> 0.0461 mg/mL	CC1CCCCN1C(=O)c1ccc(C(=O)c2ccccc2)cc1 (stereo not given)
< 0.0004 mg/mL	Cc1cccc(N(Cc2cc3ccccc3[nH]c2=O)C(=O)c2cccs2)c1
> 0.0496 mg/mL	O=C(CN1c2cccc3cccc(c23)S1(=O)=O)N1CCCCC1
0.0055 mg/mL (≈ 18 µM)	COc1ccc(NC(=O)NC2CCCCCCC2)c(OC)c1

solubility kinetic	SMILES
0.0062 mg/mL (≈ 17.3 µM)	CCC(=O)c1cc(F)ccc1OCC(=O)Nc1ccc2c(c1)OCCO2
0.0083 mg/mL (≈ 24.5 µM)	C=CCC1(CC=C)CCCN1Cc1nc(COc2ccccc2)no1
> 0.0362 mg/mL	CC(C)c1nnc(NC(=O)C2CCCO2)s1 (stereo not given)
0.0343 mg/mL (≈ 113 µM)	Cc1ccc(N2CC(C(=O)N3CCOCC3)CC2=O)cc1C (stereo not given)
0.0011 mg/mL (≈ 3.64 µM)	COCc1cc(C)nc(SCc2ccc(F)cc2)c1C#N
0.0136 mg/mL (≈ 38.4 µM)	Cc1ccnc(N2CCC(C(=O)Nc3ccc4c(c3)OCCO4)CC2)n1
0.0047 mg/mL (≈ 13.8 µM)	COc1ccc(NC(=S)N2CCC(Cc3ccccc3)CC2)cc1
0.0312 mg/mL (≈ 104 µM)	Cc1cccn2c(Nc3ccccc3)c(-c3ccccn3)nc12
> 0.0499 mg/mL	CCN(CC)C(=O)COCc1cc(-c2ccc3c(c2)OCO3)on1
0.0014 mg/mL (≈ 4.66 µM)	COc1ccccc1OCCn1c(=S)[nH]c2ccccc21
> 0.0438 mg/mL	CC(=O)Nc1ccc(C(=O)CN2C(=O)CSC2=O)cc1
< 0.0003 mg/mL	COc1cc(NC(C)=O)ccc1NC(=O)c1cc2ccccc2o1
0.0077 mg/mL (≈ 25 µM)	Cc1ccccc1C1NC(c2ccccc2C)C(C)C(=O)C1C (stereo not given)
0.0317 mg/mL (≈ 98.6 µM)	C=CCOc1ccccc1CN1CCC(Cc2ccccc2)CC1
> 0.0523 mg/mL	COc1ccc(NS(=O)(=O)c2ccc3c(c2)CCC(=O)N3)cc1O
0.0087 mg/mL (≈ 27.2 µM)	N#C/C(=C\Nc1ccc(Cl)cc1)S(=O)(=O)c1ccccn1
0.0354 mg/mL (≈ 135 µM)	CCNC(=S)N1CCC(Cc2ccccc2)CC1
0.0004 mg/mL (≈ 1.14 µM)	COc1ccc(Cl)cc1C(=O)NC(=S)Nc1nc(C)cc(C)n1
0.007 mg/mL (≈ 21.2 µM)	NC(=O)c1c(NC(=O)c2ccncc2)sc2c1CCCCCC2
> 0.041 mg/mL	CCCNC(=O)c1ccc(COc2ccc(C)cc2)o1
